# Assay results reported in patent US20200172549A1, “NOVEL CHLORIN E6-CURCUMIN DERIVATIVES, PREPARATION METHOD THEREOF, AND PHARMACEUTICAL COMPOSITION CONTAINING THE SAME FOR TREATMENT OF CANCER” (DONG SUNG PHARM. CO., LTD., priority 2017, published 2020).
# Key:
# MIA-PaCa-2 [1] = assay: Phototoxicity (PDT), MTT assay, MIA-PaCa-2; format: cell-based; conditions: for Cell viability, Phototoxicity against MIA-PaCa-2: 3 h, 50 mW 0.09 J/cm^2 laser 100 sec, 72 h incubation
# Protocol: (§1) Phototoxicity: The culture of AsPC-1 pancreatic cancer cells were grown in RPMI-1640 medium (life technologies corporation, USA) supplemented with 10% heat-inactivated fetal bovine serum (life technologies corporation, USA) and 1% penicillin (life technologies corporation, USA), whereas MIA-paca2 and PANC-1 cells were grown in DMEM. The MTT assay was used to assess the cell viability of AsPC-1, MIA-paca2, PANC-1 cells. The cells attached to a 96-well plate (5,000 cells/well) were treated with 3.125 μM, 6.25 μM, 12.5 μM, 25 μM, 50 μM of photosensitizers, 7, 10, 13, 16, and 3 for 3 h. The photosensitized cells were then irradiated with a 50 mW, 0.09 J/cm^2 laser for 100 sec. The cells were then incubated for 72 h at 37° C. in a 5% CO2 incubator and exposed to MTT [3-(4,5-dimethylthiazol-2-yl)-2,5-diphenyl-tetrazolium bromide] (250 μg/ml) for 3 h. The solution was changed to 200 μl of dimethylsulfoxide (DMSO, Sigma). After 30 min incubation and shaking in microplate mixer, the optical density (OD) was measured using a microplate reader (Thermo Fisher scientific, USA) at 570 nm wavelength. The cell viability was calculated using the following formula: Cell viability (%)=Mean optical density of treated wells/Mean optical density of control wells×100.
# [2] = test system: AsPC-1 pancreatic cancer cells; assay: Dark cytotoxicity, MTT assay, AsPC-1; format: cell-based; conditions: 3 h, no light, 72 h incubation
# Protocol: as §1, with “Dark cytotoxicity:” for “Phototoxicity:”, “1” for “1%”, “h.” for “h. The photosensitized cells were then irradiated with a 50 mW, 0.09 J/cm^2 laser for 100 sec.”
# MIA-PaCa-2 [3] = assay: Dark cytotoxicity, MTT assay, MIA-PaCa-2; format: cell-based; conditions: 3 h, no light, 72 h incubation
# Protocol: as §1, with “Dark cytotoxicity:” for “Phototoxicity:”, “1” for “1%”, “h.” for “h. The photosensitized cells were then irradiated with a 50 mW, 0.09 J/cm^2 laser for 100 sec.”
# [4] = Photophysical properties (absorption) in DMSO; format: physicochemical
# Protocol: The photophysical properties of Ce6-curcumin conjugates and dimethyl ester ce6 were analyzed in dimethyl sulfoxide (DMSO). All the photosensitizers 7, 10, 13, and 16 (Formula IV) effectively absorbed the red light compared to dimethyl ester ce6. The major soret peak at λmax=405-408 nm and Q-bands at 667 nm for the photosensitizers 7, 10, 13, and 16 (Formula IV) and Q band peak at 656 for dimethyl ester ce6.
# PANC-1 = assay: Phototoxicity (PDT), MTT assay, PANC-1; format: cell-based; conditions: for Cell viability, Phototoxicity against PANC-1: 3 h, 50 mW 0.09 J/cm^2 laser 100 sec, 72 h incubation
# Protocol: as §1
# [5] = test system: AsPC-1 pancreatic cancer cells; assay: Phototoxicity (PDT), MTT assay, AsPC-1; format: cell-based; conditions: for Cell viability, Phototoxicity against AsPC-1: 3 h, 50 mW 0.09 J/cm^2 laser 100 sec, 72 h incubation
# Protocol: as §1
# [6] = 12.5 μM concentration, with light
compound,measurement,setting,value
"C=Cc1c(C)c2cc3nc(c(CC(=O)OC)c4[nH]c(cc5nc(cc1[nH]2)C(C)=C5CC)c(C)c4C(=O)NCCCNC(=O)CCCC(=O)Oc1ccc(/C=C/C(=O)CC(=O)/C=C/c2ccc(O)c(OC)c2)cc1OC)C(CCC(=O)OC)C3C (centres unmarked) [Compound 7, Chlorine e6-curcumin Conjugate (7)]","Cell viability, Phototoxicity against MIA-PaCa-2",MIA-PaCa-2 [1]; 3.12 μM photosensitizer,69.70%
same,"Cell viability, Phototoxicity against MIA-PaCa-2",MIA-PaCa-2 [1]; 6.25 μM photosensitizer,12.35%
same,Inhibition of MIA-PaCa-2 (PDT),MIA-PaCa-2 [1]; [6],94%
same,"Cell viability, Phototoxicity against MIA-PaCa-2",MIA-PaCa-2 [1]; 12.5 μM photosensitizer,6.03%
same,"Cell viability, Phototoxicity against MIA-PaCa-2",MIA-PaCa-2 [1]; 25 μM photosensitizer,5.18%
same,"Cell viability, Phototoxicity against MIA-PaCa-2",MIA-PaCa-2 [1]; 50 μM photosensitizer,4.99%
same,"Cell viability, Dark Cytotoxicity against AsPC-1",[2]; 3.12 μM photosensitizer,100.58%
same,"Cell viability, Dark Cytotoxicity against AsPC-1",[2]; 6.25 μM photosensitizer,101.61%
same,"Cell viability, Dark Cytotoxicity against AsPC-1",[2]; 12.5 μM photosensitizer,103.72%
same,"Cell viability, Dark Cytotoxicity against AsPC-1",[2]; 25 μM photosensitizer,97.17%
same,"Cell viability, Dark Cytotoxicity against AsPC-1",[2]; 50 μM photosensitizer,90.14%
same,"Cell viability, Dark cytotoxicity against MIA-PaCa-2",MIA-PaCa-2 [3]; 3.12 μM photosensitizer,107.39%
same,"Cell viability, Dark cytotoxicity against MIA-PaCa-2",MIA-PaCa-2 [3]; 6.25 μM photosensitizer,104.17%
same,"Cell viability, Dark cytotoxicity against MIA-PaCa-2",MIA-PaCa-2 [3]; 12.5 μM photosensitizer,101.89%
same,"Cell viability, Dark cytotoxicity against MIA-PaCa-2",MIA-PaCa-2 [3]; 25 μM photosensitizer,99.23%
same,"Cell viability, Dark cytotoxicity against MIA-PaCa-2",MIA-PaCa-2 [3]; 50 μM photosensitizer,88.84%
same,Q-band peak,[4],667 nm
same,"Cell viability, Phototoxicity against PANC-1",PANC-1; 3.12 μM photosensitizer,66.14%
same,"Cell viability, Phototoxicity against PANC-1",PANC-1; 6.25 μM photosensitizer,31.56%
same,Inhibition of PANC-1 (PDT),PANC-1; [6],88%
same,"Cell viability, Phototoxicity against PANC-1",PANC-1; 12.5 μM photosensitizer,12.33%
same,"Cell viability, Phototoxicity against PANC-1",PANC-1; 25 μM photosensitizer,11.58%
same,"Cell viability, Phototoxicity against PANC-1",PANC-1; 50 μM photosensitizer,11.87%
same,"Cell viability, Phototoxicity against AsPC-1",[5]; 3.12 μM photosensitizer,85.97%
same,"Cell viability, Phototoxicity against AsPC-1",[5]; 6.25 μM photosensitizer,43.03%
same,Inhibition of AsPC-1 (PDT),[5]; [6],75%
same,"Cell viability, Phototoxicity against AsPC-1",[5]; 12.5 μM photosensitizer,24.03%
same,"Cell viability, Phototoxicity against AsPC-1",[5]; 25 μM photosensitizer,10.35%
same,"Cell viability, Phototoxicity against AsPC-1",[5]; 50 μM photosensitizer,6.63%
